Experimental data: PubChem BioAssay (NCI)
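Growth conditions: 96-well plates. Treatment: test compound, 48 hours, 5 concentrations. Analysis: linear interpolation between bracketing concentrations; unreached endpoints set to highest concentration. GI50: concentration for 50% inhibition of growth. TGI marks complete inhibition of growth.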

Experiments:
Assay in all cases: DTP human tumour cell line panel, 48 h; in the data active = GI50 below about 0.43 µM; inactive = the rest
786-0 renal = tested on: 786-0 renal
A549 NSCLC = tested on: A549 NSCLC
ACHN renal = tested on: ACHN renal
BT-549 breast = tested on: BT-549 breast
CAKI-1 renal = tested on: CAKI-1 renal
CCRF-CEM leukemia = tested on: CCRF-CEM leukemia
COLO 205 colon = tested on: COLO 205 colon
DU-145 prostate = tested on: DU-145 prostate
EKVX NSCLC = tested on: EKVX NSCLC
HCT-116 colon = tested on: HCT-116 colon
HCT-15 colon = tested on: HCT-15 colon
HL-60(TB) leukemia = tested on: HL-60(TB) leukemia
HOP-62 NSCLC = tested on: HOP-62 NSCLC
HOP-92 NSCLC = tested on: HOP-92 NSCLC
HT29 colon = tested on: HT29 colon
IGROV1 ovarian = tested on: IGROV1 ovarian
K-562 leukemia = tested on: K-562 leukemia
KM12 colon = tested on: KM12 colon
LOX IMVI melanoma = tested on: LOX IMVI melanoma
M14 melanoma = tested on: M14 melanoma
MALME-3M melanoma = tested on: MALME-3M melanoma
MDA-MB-231 breast = tested on: MDA-MB-231 breast
MDA-MB-435 = tested on: MDA-MB-435
MOLT-4 leukemia = tested on: MOLT-4 leukemia
NCI-H23 lung = tested on: NCI-H23 lung
NCI-H460 lung = tested on: NCI-H460 lung
OVCAR-3 ovarian = tested on: OVCAR-3 ovarian
OVCAR-4 ovarian = tested on: OVCAR-4 ovarian
OVCAR-8 ovarian = tested on: OVCAR-8 ovarian
PC-3 prostate = tested on: PC-3 prostate
RPMI-8226 leukemia = tested on: RPMI-8226 leukemia
SF-268 CNS = tested on: SF-268 CNS
SF-295 CNS = tested on: SF-295 CNS
SK-MEL-28 melanoma = tested on: SK-MEL-28 melanoma
SK-MEL-5 melanoma = tested on: SK-MEL-5 melanoma
SK-OV-3 ovarian = tested on: SK-OV-3 ovarian
SN12C renal = tested on: SN12C renal
SNB-19 CNS = tested on: SNB-19 CNS
SNB-75 CNS = tested on: SNB-75 CNS
SR leukemia = tested on: SR leukemia
SW-620 colon = tested on: SW-620 colon
T-47D breast = tested on: T-47D breast
TK-10 renal = tested on: TK-10 renal
U251 CNS = tested on: U251 CNS
UACC-62 melanoma = tested on: UACC-62 melanoma
UO-31 renal = tested on: UO-31 renal
A498 renal = tested on: A498 renal
HCC-2998 colon = tested on: HCC-2998 colon
HS 578T breast = tested on: HS 578T breast
MCF7 breast = tested on: MCF7 breast
NCI-H226 lung = tested on: NCI-H226 lung
NCI-H522 lung = tested on: NCI-H522 lung
NCI/ADR-RES ovarian = tested on: NCI/ADR-RES ovarian
OVCAR-5 ovarian = tested on: OVCAR-5 ovarian
SF-539 CNS = tested on: SF-539 CNS
UACC-257 melanoma = tested on: UACC-257 melanoma

CCOC(=O)/C(=C/N1CCN(C(=O)c2ccco2)C1=S)C(=O)c1ccccc1
21 µM: TGI (M14 melanoma)
48.4 µM: TGI (MALME-3M melanoma)
36.3 µM: TGI (A549 NSCLC)
17.5 µM: TGI (UACC-62 melanoma)
18.5 µM: TGI (HCT-15 colon)
> 50 µM: TGI (CAKI-1 renal) | TGI (CCRF-CEM leukemia) | TGI (COLO 205 colon) | TGI (HOP-62 NSCLC) | TGI (HOP-92 NSCLC) | TGI (HT29 colon) | TGI (IGROV1 ovarian) | TGI (K-562 leukemia) | TGI (KM12 colon) | TGI (MDA-MB-435) | TGI (MOLT-4 leukemia) | TGI (OVCAR-3 ovarian) | TGI (OVCAR-4 ovarian) | TGI (PC-3 prostate) | TGI (RPMI-8226 leukemia) | TGI (SF-295 CNS) | TGI (SK-MEL-28 melanoma) | TGI (SK-OV-3 ovarian) | TGI (SNB-19 CNS) | TGI (SNB-75 CNS) | TGI (T-47D breast) | TGI (U251 CNS)
active: GI50 (SK-MEL-5 melanoma) < 0.005 µM
31 µM: TGI (HL-60(TB) leukemia)
23.7 µM: TGI (EKVX NSCLC) | TGI (HCT-116 colon)
33.2 µM: TGI (MDA-MB-231 breast)
24.1 µM: TGI (DU-145 prostate)
14.2 µM: TGI (LOX IMVI melanoma)
17.4 µM: TGI (SN12C renal)
34 µM: TGI (TK-10 renal)
19.3 µM: TGI (UO-31 renal)
16.4 µM: TGI (SR leukemia)
35.2 µM: TGI (OVCAR-8 ovarian)
15.4 µM: TGI (NCI-H460 lung)
45.2 µM: TGI (786-0 renal)
inactive: GI50 (786-0 renal) 12.9 µM | GI50 (A549 NSCLC) 11.6 µM | GI50 (ACHN renal) 8.48 µM | GI50 (BT-549 breast) 8.96 µM | GI50 (CAKI-1 renal) 15.9 µM | GI50 (CCRF-CEM leukemia) 15.6 µM | GI50 (COLO 205 colon) 19.2 µM | GI50 (DU-145 prostate) 8.04 µM | GI50 (EKVX NSCLC) 9.53 µM | GI50 (HCT-116 colon) 8.93 µM | GI50 (HCT-15 colon) 6.33 µM | GI50 (HL-60(TB) leukemia) 14.9 µM | GI50 (HOP-62 NSCLC) 17.3 µM | GI50 (HOP-92 NSCLC) 23 µM | GI50 (HT29 colon) 19.2 µM | GI50 (IGROV1 ovarian) > 50 µM | GI50 (K-562 leukemia) 15.7 µM | GI50 (KM12 colon) 10.1 µM | GI50 (LOX IMVI melanoma) 6.48 µM | GI50 (M14 melanoma) 8.86 µM | GI50 (MALME-3M melanoma) 13.3 µM | GI50 (MDA-MB-231 breast) 10.8 µM | GI50 (MDA-MB-435) 14.4 µM | GI50 (MOLT-4 leukemia) 19.6 µM | GI50 (NCI-H23 lung) 7.7 µM | GI50 (NCI-H460 lung) 4.87 µM | GI50 (OVCAR-3 ovarian) 20.2 µM | GI50 (OVCAR-4 ovarian) 31 µM | GI50 (OVCAR-8 ovarian) 11.7 µM | GI50 (PC-3 prostate) 19.4 µM | GI50 (RPMI-8226 leukemia) 12.4 µM | GI50 (SF-268 CNS) 7.18 µM | GI50 (SF-295 CNS) 16.4 µM | GI50 (SK-MEL-28 melanoma) 22.2 µM | GI50 (SK-OV-3 ovarian) 20 µM | GI50 (SN12C renal) 8.1 µM | GI50 (SNB-19 CNS) 35.6 µM | GI50 (SNB-75 CNS) 46 µM | GI50 (SR leukemia) 2.35 µM | GI50 (SW-620 colon) 7.93 µM | GI50 (T-47D breast) 4.08 µM | GI50 (TK-10 renal) 12.4 µM | GI50 (U251 CNS) 11.5 µM | GI50 (UACC-62 melanoma) 7.64 µM | GI50 (UO-31 renal) 9.99 µM
19.9 µM: TGI (SF-268 CNS)
< 0.005 µM: TGI (SK-MEL-5 melanoma)
14.7 µM: TGI (NCI-H23 lung)
24 µM: TGI (SW-620 colon)
17.6 µM: TGI (ACHN renal)
25 µM: TGI (BT-549 breast)

COc1ccc(C(c2cc(OC)c(OC)c(OC)c2)n2ccnc2)cc1O (stereo unspecified)
0.646 µM: TGI (M14 melanoma)
1.77 µM: TGI (COLO 205 colon)
inactive: GI50 (A549 NSCLC) 0.838 µM | GI50 (ACHN renal) 0.693 µM | GI50 (CAKI-1 renal) 0.68 µM | GI50 (EKVX NSCLC) 0.72 µM | GI50 (HCC-2998 colon) 1.72 µM | GI50 (HCT-15 colon) 0.464 µM | GI50 (HOP-62 NSCLC) 0.516 µM | GI50 (HOP-92 NSCLC) 28.6 µM | GI50 (IGROV1 ovarian) 0.862 µM | GI50 (LOX IMVI melanoma) 0.525 µM | GI50 (MDA-MB-231 breast) 0.664 µM | GI50 (MOLT-4 leukemia) 0.565 µM | GI50 (NCI-H226 lung) 0.64 µM | GI50 (NCI-H23 lung) 0.882 µM | GI50 (NCI/ADR-RES ovarian) 1.92 µM | GI50 (OVCAR-4 ovarian) 3.44 µM | GI50 (OVCAR-5 ovarian) 0.648 µM | GI50 (SF-268 CNS) 0.731 µM | GI50 (SK-OV-3 ovarian) 0.465 µM | GI50 (SN12C renal) 0.91 µM | GI50 (SNB-19 CNS) 0.532 µM | GI50 (UACC-257 melanoma) 1.44 µM | GI50 (UACC-62 melanoma) 0.668 µM | GI50 (UO-31 renal) 0.883 µM
0.628 µM: TGI (HL-60(TB) leukemia)
0.857 µM: TGI (OVCAR-3 ovarian)
1.02 µM: TGI (HT29 colon)
> 100 µM: TGI (786-0 renal) | TGI (A549 NSCLC) | TGI (ACHN renal) | TGI (CAKI-1 renal) | TGI (CCRF-CEM leukemia) | TGI (DU-145 prostate) | TGI (EKVX NSCLC) | TGI (HCC-2998 colon) | TGI (HCT-116 colon) | TGI (HCT-15 colon) | TGI (HOP-62 NSCLC) | TGI (HOP-92 NSCLC) | TGI (HS 578T breast) | TGI (IGROV1 ovarian) | TGI (K-562 leukemia) | TGI (KM12 colon) | TGI (LOX IMVI melanoma) | TGI (MCF7 breast) | TGI (MDA-MB-231 breast) | TGI (MOLT-4 leukemia) | TGI (NCI-H226 lung) | TGI (NCI-H23 lung) | TGI (NCI-H460 lung) | TGI (NCI/ADR-RES ovarian) | TGI (OVCAR-4 ovarian) | TGI (OVCAR-5 ovarian) | TGI (PC-3 prostate) | TGI (RPMI-8226 leukemia) | TGI (SF-268 CNS) | TGI (SK-OV-3 ovarian) | TGI (SN12C renal) | TGI (SNB-19 CNS) | TGI (SR leukemia) | TGI (SW-620 colon) | TGI (U251 CNS) | TGI (UACC-257 melanoma) | TGI (UACC-62 melanoma) | TGI (UO-31 renal)
3.18 µM: TGI (SK-MEL-5 melanoma)
0.941 µM: TGI (A498 renal)
0.76 µM: TGI (NCI-H522 lung)
active: GI50 (786-0 renal) 0.369 µM | GI50 (A498 renal) 0.304 µM | GI50 (CCRF-CEM leukemia) 0.289 µM | GI50 (COLO 205 colon) 0.361 µM | GI50 (DU-145 prostate) 0.407 µM | GI50 (HCT-116 colon) 0.249 µM | GI50 (HL-60(TB) leukemia) 0.229 µM | GI50 (HS 578T breast) 0.414 µM | GI50 (HT29 colon) 0.312 µM | GI50 (K-562 leukemia) 0.225 µM | GI50 (KM12 colon) 0.389 µM | GI50 (M14 melanoma) 0.18 µM | GI50 (MCF7 breast) 0.339 µM | GI50 (NCI-H460 lung) 0.377 µM | GI50 (NCI-H522 lung) 0.247 µM | GI50 (OVCAR-3 ovarian) 0.264 µM | GI50 (PC-3 prostate) 0.384 µM | GI50 (RPMI-8226 leukemia) 0.385 µM | GI50 (SF-539 CNS) 0.217 µM | GI50 (SK-MEL-5 melanoma) 0.367 µM | GI50 (SR leukemia) 0.182 µM | GI50 (SW-620 colon) 0.387 µM | GI50 (U251 CNS) 0.391 µM
0.552 µM: TGI (SF-539 CNS)
